This note sets out measurements from patent publication US9573913B2, “Cathepsin cysteine protease inhibitors” (Merck Sharp & Dohme Corp., priority 2013, dated 2017).

One test addresses T1, human cathepsin F (Homo sapiens, UniProt Q9UBX1).
T1 sequence (Q9UBX1 271-484): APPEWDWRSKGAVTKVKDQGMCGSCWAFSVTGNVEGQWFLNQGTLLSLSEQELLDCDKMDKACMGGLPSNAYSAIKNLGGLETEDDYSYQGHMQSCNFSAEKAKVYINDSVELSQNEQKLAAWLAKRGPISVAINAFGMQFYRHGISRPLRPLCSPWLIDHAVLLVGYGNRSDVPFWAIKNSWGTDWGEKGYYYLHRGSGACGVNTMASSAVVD
Description: Cathepsin F assay (hCat F). In kind it is biochemical. To be noted: Z-Phe-Arg-AMC substrate, pH 5.5, 15 min preincubation; read-out: hCat F (IP (nM)). The procedure: Cathepsin F assay (hCat F)
(§1) Serial dilutions (1/3) from 500 μM down to 0.025 μM of test compounds were prepared in dimethyl sulfoxide (DMSO). Then 0.5 μL of DMSO from each dilution were added to 18.75 μL of assay buffer (MES, 50 mM (pH 5.5); EDTA, 2.5 mM; DTT, 2.5 mM and 10% DMSO) containing human cathepsin F (10 nM) in assay buffer solution. The assay solutions were mixed for 5-10 seconds on a shaker plate and incubated for 15 minutes at room temperature. Z-Phe-Arg-AMC (8 μM) in 6.25 μL of assay buffer was added to the assay solutions. Hydrolysis of the coumarin leaving group (AMC) was followed by spectrofluorometry (Exλ=360 nm; Emλ=460 nm) for 20 minutes. Percent of inhibition were calculated by fitting experimental values to standard mathematical model for dose response curve.

In another test the target is human cathepsin K (UniProt P43236). Description: Cathepsin K Assay (hrbCat K). In kind it is biochemical. The conditions noted are these: Z-Leu-Arg-AMC substrate, pH 5.5, 15 min preincubation; read-out: hrbCat K (IP (nM)). Here is the method: Cathepsin K Assay (hrbCat K)
as §1, with “Then” for “Serial dilutions (1/3) from 500 μM down to 0.025 μM of test compounds were prepared in dimethyl sulfoxide (DMSO). Then”, “K (0.4” for “F (10”, “Z-Leu-Arg-AMC” for “Z-Phe-Arg-AMC”, “30” for “20”

Regarding `N#CC1(NC(=O)[C@@H]2C[C@@H](F)CC[C@H]2c2nc(-c3ccc(F)cn3)sc2-c2ccc(N3CCS(=N)(=O)CC3)cc2)CC1` [Example 141, (1R,2R,5S)-N-(1-cyanocyclopropyl)-5-fluoro-2-(2-(5-fluoropyridin-2-yl)-5-(4-(1-imino-1-oxidothiomorpholino)phenyl)thiazol-4-yl)cyclohexane-carboxamide], the IC50 on human cathepsin F turned out to be 1000 nM; at human cathepsin K it was 2.3 nM.

Take `N#CC(NC(=O)[C@@H]1CCCC[C@H]1c1nc(-c2ccc(F)cn2)sc1-c1ccc(N2CCS(=O)(=O)CC2)cc1)C1CCOCC1` (single isomer, unassigned) [Example 185, (1R,2R)-N-((R or S)-cyano(tetrahydro-2H-pyran-4-yl)methyl)-2-(5-(4-(1,1-dioxidothiomorpho-lino)phenyl)-2-(5-fluoropyridin-2-yl)thiazol-4-yl)cyclohexane-carboxamide]: the IC50 was 695 nM on human cathepsin F and 1.3 nM at human cathepsin K.

On to `CC(C)(C)Nc1nc([C@@H]2CCCC[C@H]2C(=O)NC2(C#N)CC2)c(-c2ccc(N3CCS(=O)(=O)CC3)cc2)s1` [Example 157, (1R,2R)-2-(2-(tert-butylamino)-5-(4-(1,1-dioxidothiomorpho-lino)phenyl)thiazol-4-yl)-N-(1-cyanocyclopropyl) cyclohexanecarbox-amide], for which the IC50 is at least 10000 nM on human cathepsin F and 19.4 nM on human cathepsin K.

In the case of `Cc1ncc(-c2nc([C@@H]3CC[C@H](F)C[C@H]3C(=O)NC3(C#N)CC3)c(-c3ccc(N4CCS(=O)(=O)CC4)cc3)s2)s1` [Example 128, (1R,2R,5S)-N-(1-cyanocyclopropyl)-2-(5-(4-(1,1-dioxidothiomorpho-lino)phenyl)-2′-methyl-[2,5′-bithiazol]-4-yl)-5-fluorocyclohexane-carboxamide], the IC50 on human cathepsin F is at least 10000 nM; at human cathepsin K, 1.8 nM.

Regarding `Cc1nc([C@@H]2CC[C@H](F)C[C@H]2C(=O)NC2(C#N)CC2)c(-c2ccc(N3CCS(=O)(=O)CC3)cc2)s1` [Example 205, (1R,2R,5S)-N-(1-cyanocyclopropyl)-2-(5-(4-(1,1-dioxidothiomorpho-lino)phenyl)-2-methylthiazol-4-yl)-5-fluorocyclohexane-carboxamide], the IC50 at human cathepsin F is at least 10000 nM; at human cathepsin K, 6.4 nM.

Turning to `N#CC1(NC(=O)[C@@H]2CCCC[C@H]2c2nc(-c3ccnc(C(F)(F)F)n3)sc2-c2ccc(N3CCS(=O)(=O)CC3)cc2)CC1` [Example 118, (1R,2R)-N-(1-cyanocyclopropyl)-2-(5-(4-(1,1-dioxidothiomorpho-lino)phenyl)-2-(2-(trifluoromethyl)pyrimidin-4-yl)thiazol-4-yl)cyclohexane-carboxamide], the IC50 was at least 10000 nM on human cathepsin F and 59.4 nM at human cathepsin K.

On to `CC(C)(c1ccccc1)c1nc([C@@H]2CCCC[C@H]2C(=O)NC2(C#N)CC2)c(-c2ccc(N3CCS(=O)(=O)CC3)cc2)s1` [Example 161, (1R,2R)-N-(1-cyanocyclopropyl)-2-(5-(4-(1,1-dioxidothiomorpho-lino)phenyl)-2-(2-phenylpropan-2-yl)thiazol-4-yl)cyclohexane-carboxamide], for which the IC50 at human cathepsin F was 1000 nM; on human cathepsin K, 5.1 nM.

In the case of `N#CC1(NC(=O)[C@@H]2CC3CC3C[C@H]2c2nc(-c3cncc(Cl)c3)sc2-c2ccc(N3CCS(=O)(=O)CC3)cc2)CC1` (single isomer, unassigned) [Example 109, (1S or R,3R,4R,6R or S)-4-(2-(5-chloropyridin-3-yl)-5-(4-(1,1-dioxidothiomorpho-lino)phenyl)thiazol-4-yl)-N-(1-cyanocyclopropyl) bicyclo[4.1.0]heptane-3-carboxamide], the values for the IC50 at human cathepsin F and at human cathepsin K were 258 nM and 0.6 nM, respectively.

With `N#CC(CC(F)(F)F)NC(=O)[C@@H]1CCCC[C@H]1c1nc(-c2ccc(F)cn2)sc1-c1ccc(N2CCS(=O)(=O)CC2)cc1` (single isomer, unassigned) [Example 193, (1R,2R)-N-((R or S)-1-cyano-3,3,3-trifluoropropyl)-2-(5-(4-(1,1-dioxidothiomorpho-lino)phenyl)-2-(5-fluoropyridin-2-yl)thiazol-4-yl)cyclohexane-carboxamide], the IC50 is 21 nM at human cathepsin F and 0.6 nM on human cathepsin K.

`CC1(c2nc([C@@H]3CCCC[C@H]3C(=O)NC3(C#N)CC3)c(-c3ccc(N4CCS(=O)(=O)CC4)cc3)s2)CCOCC1` [Example 133, (1R,2R)-N-(1-cyanocyclopropyl)-2-(5-(4-(1,1-dioxidothiomorpho-lino)phenyl)-2-(4-methyltetrahydro-2H-pyran-4-yl)thiazol-4-yl)cyclohexane-carboxamide]: the IC50 at human cathepsin F was at least 10000 nM; on human cathepsin K, 4.9 nM.

In the case of `N#CC1(NC(=O)[C@@H]2CCCC[C@H]2c2nc(-c3ccc(F)cc3)sc2-c2ccc(C(=O)N3CCNC(=O)C3)cc2)CC1` [Example 35, (1R,2R)-N-(1-cyanocyclopropyl)-2-(2-(4-fluorophenyl)-5-(4-(3-oxopiperazine-1-carbonyl)phenyl)thi-azol-4-yl)cyclohexane-carboxamide], the values for the IC50 on human cathepsin F and at human cathepsin K were 667 nM and 64.5 nM, respectively.

Consider `N#CC1(NC(=O)[C@@H]2C[C@@H](F)CC[C@H]2c2nc(C(F)F)sc2-c2ccc(N3CCS(=O)(=O)CC3)cc2)CC1` [Example 2219, (1R,2R,5S)-N-(1-cyanocyclopropyl)-2-(2-(difluoromethyl)-5-(4-(1,1-dioxidothiomorpho-lino)phenyl)thiazol-4-yl)-5-fluorocyclohexane-carboxamide], for which the figures for the IC50 at human cathepsin F and at human cathepsin K were 4860 nM and 1.8 nM, respectively.

As to `N#Cc1cccc(-c2nc([C@@H]3CCCC[C@H]3C(=O)NC3(C#N)CC3)c(-c3ccc(N4CCS(=O)(=O)CC4)cc3)s2)c1` [Example 66, (1R,2R)-N-(1-cyanocyclopropyl)-2-(2-(3-cyanophenyl)-5-(4-(1,1-dioxidothiomorpho-lino)phenyl)thiazol-4-yl)cyclohexane-carboxamide], the values for the IC50 on human cathepsin F and on human cathepsin K were 1410 nM and 2 nM, respectively.

For `CC(=O)N1CC(c2ccc(-c3sc(-c4ccc(F)cc4)nc3[C@@H]3CCCC[C@H]3C(=O)NC3(C#N)CC3)cc2)C1` [Example 151, (1R,2R)-2-(5-(4-(1-acetylazetidin-3-yl)phenyl)-2-(4-fluorophenyl)thiazol-4-yl)-N-(1-cyanocyclopropyl) cyclohexanecarbox-amide], the IC50 at human cathepsin F was 177 nM; at human cathepsin K, 1.3 nM.

In the case of `N#CC1(NC(=O)[C@@H]2CCC(F)(F)C[C@H]2c2nc(-c3cncc(Cl)c3)sc2-c2ccc(N3CCS(=O)(=O)CC3)cc2)CC1` [Example 115, (1R,2R)-2-(2-(5-chloropyridin-3-yl)-5-(4-(1,1-dioxidothiomorpho-lino)phenyl)thiazol-4-yl)-N-(1-cyanocyclopropyl)-4,4-difluorocyclohexane-carboxamide], the IC50 on human cathepsin F was found to be 2660 nM; at human cathepsin K, 2.2 nM.

Turning to `CC(C)C(C#N)NC(=O)[C@@H]1CCCC[C@H]1c1nc(-c2ccc(F)cn2)sc1-c1ccc(N2CCS(=O)(=O)CC2)cc1` (single isomer, unassigned) [Example 191, (1R,2R)-N-((R or S)-1-cyano-2-methylpropyl)-2-(5-(4-(1,1-dioxidothiomorpho-lino)phenyl)-2-(5-fluoropyridin-2-yl)thiazol-4-yl)cyclohexane-carboxamide], the IC50 at human cathepsin F was found to be 691 nM; on human cathepsin K, 1.5 nM.

`N#CC1(NC(=O)[C@@H]2CCCC[C@H]2c2nc(-c3cc(F)cc(F)c3)sc2-c2ccc(N3CCS(=O)(=O)CC3)cc2)CC1` [Example 57, (1R,2R)-N-(1-cyanocyclopropyl)-2-(2-(3,5-difluorophenyl)-5-(4-(1,1-dioxidothiomorpho-lino)phenyl)thiazol-4-yl)cyclohexane-carboxamide]: the IC50 came to 650 nM at human cathepsin F and 1.5 nM on human cathepsin K.

As to `N#CC(NC(=O)[C@@H]1CCCC[C@H]1c1nc(-c2ccc(F)cn2)sc1-c1ccc(N2CCS(=O)(=O)CC2)cc1)C1CCOCC1` (single isomer, unassigned) [Example 186, (1R,2R)-N-((S or R)-cyano(tetrahydro-2H-pyran-4-yl)methyl)-2-(5-(4-(1,1-dioxidothiomorpho-lino)phenyl)-2-(5-fluoropyridin-2-yl)thiazol-4-yl)cyclohexane-carboxamide], the IC50 at human cathepsin F is at least 10000 nM; on human cathepsin K it was 1900 nM.

`CS(=O)(=O)c1ccc(-c2sc(-c3cccnc3)nc2[C@@H]2CCCC[C@H]2C(=O)NC2(C#N)CC2)cc1` [Example 131, (1R,2R)-N-(1-cyanocyclopropyl)-2-(5-(4-(methylsulfonyl)phenyl)-2-(pyridin-3-yl)thiazol-4-yl)cyclohexane-carboxamide]: the values for the IC50 at human cathepsin F and on human cathepsin K were 1790 nM and 39.7 nM, respectively.
